From publication PMC8270334, “Design, Sustainable Synthesis and Biological Evaluation of a Novel Dual α2A/5-HT7 Receptor Antagonist with Antidepressant-Like Properties” (Molecules, 2021)

Assays:
[1] = tested on: Albino Swiss mice; assay: forced swim test; assay type: in vivo; conditions: ip; for shortening of immobility in FST in comparison to control: dose range 1–8 mg/kg; for shortening of immobility in FST in comparison to control / active dose in FST (antidepressant-like effect): 30 min before test
Description: Adult male Albino Swiss mice (CD-1, 8 weeks old, 25–30 g: Jagiellonian University Medical College, Krakow, Poland) were used in the study. Animals were housed in groups of 8 in a transparent plastic cage (382 × 220 × 150 mm) at room temperature (22 ± 2 °C), on a 12 h light/dark cycle with ad libitum access to food and water. Mice were handled for one week before starting the experimental procedures. The separate groups of animals were used in the forced swim test and in the locomotor studies. All studies were approved by the Institutional Animal Care and Ethics Committee of the Jagiellonian University (approval no.: 80/2015). […] Tested compounds were dissolved with 1% Tween 80. […] The control animals were given ip injections of the 2% DMSO in 1% Tween 80 (vehicle). The volume of vehicle or drug solutions was 10 mL/kg. The experiment was performed on mice according to the method previously described. Mice were forced to swim individually in the glass cylinders (height 25 cm, diameter 10 cm) filled with water at 24 ± 1 °C to a depth of 10 cm and left there for 6 min. Following a 2 min habituation period, total time spent immobile was recorded over the next 4 min. The animal was regarded as immobile when it remained floating passively in the water, making only small movements to keep its head above the water.

[2] = target: T1, human 5-HT2A receptor (Homo sapiens, UniProt P28223); assay: radioligand binding, [3H]-ketanserin displacement at 5-HT2AR in CHO-K1 cells; conditions: ± SEM; footnote HEK-293 cells, method CHO-K1 cells
T1 construct: host or cells: CHO-K1
T1 sequence (P28223 whole entry): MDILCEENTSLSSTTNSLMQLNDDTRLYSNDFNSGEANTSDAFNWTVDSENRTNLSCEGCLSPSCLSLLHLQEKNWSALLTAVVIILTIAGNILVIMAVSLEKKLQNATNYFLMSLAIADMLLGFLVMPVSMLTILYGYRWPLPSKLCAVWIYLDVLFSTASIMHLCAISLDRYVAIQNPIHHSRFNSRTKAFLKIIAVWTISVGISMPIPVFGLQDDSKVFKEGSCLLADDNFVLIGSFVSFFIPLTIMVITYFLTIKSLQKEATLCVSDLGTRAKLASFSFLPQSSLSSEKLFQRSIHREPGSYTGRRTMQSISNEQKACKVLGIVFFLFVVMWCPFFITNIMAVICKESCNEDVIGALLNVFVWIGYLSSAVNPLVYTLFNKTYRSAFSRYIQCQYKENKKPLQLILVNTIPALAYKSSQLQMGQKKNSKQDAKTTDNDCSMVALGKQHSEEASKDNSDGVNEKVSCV
Description: All experiments were performed using HEK293 cells stably expressing human 5-HT1A, 5-HT6, 5-HT7b, and D2L receptors or CHO-K1 cells with a plasmid containing the human 5-HT2A receptor coding sequence (PerkinElmer, Waltham, MA, USA), according to previously reported procedures. Cells were cultured in 150 cm^2 flasks and, after reaching a 90% confluence, were washed with PBS and the centrifugated (200 g) in PBS containing 0.1 mM EDTA and 1 mM dithiothreitol. Cell pellets were subsequently homogenized (in Ultra Turrax tissue homogenizer) and centrifugated twice (35,000× g for 15 min at 4 °C), with 15 min incubation at 37 °C between the centrifugations. All assays were incubated in dedicated buffers and in a total volume of 200 µL in 96-well microtitre plates for 1 h at 37 °C, except for 5-HT1AR and 5-HT2AR that was incubated for 1 h at room temperature. The process of equilibration is terminated by rapid filtration through Unifilter-96 (PerkinElmer) plates with a 96-well cell harvester and radioactivity retained on the filters was quantified on a Microbeta plate reader (PerkinElmer, USA). For displacement studies, the following assay samples containing the proper radioligand were used: 2.5 nM [^3H]-8-OH-DPAT (PerkinElmer, #NET929001MC) for 5-HT1AR; 1 nM [^3H]-ketanserin (PerkinElmer, #NET791250UC) for 5-HT2AR; 2 nM [^3H]-LSD (PerkinElmer, #NET638250UC) for 5-HT6R; and 0.8 nM [^3H]-5-CT (PerkinElmer, #NET1188U100UC) for 5-HT7R or 2.5 nM [^3H]-raclopride (PerkinElmer, #NET975001MC) for D2LR. Non-specific binding was determined using 10 μM 5-HT for 5-HT1AR and 5-HT7R, 20 μM mianserin for 5-HT2AR, 10 μM methiothepine for 5-HT6R, and 10 μM haloperidol for D2LR. […] Results were expressed as means of at least three separate experiments.

[3] = target: α1-AR; assay: radioligand binding, displacement of [3H]prazosin from α1-adrenoreceptors; conditions: rat cerebral cortex, ± SEM
Description: The brains were homogenized in 20 volumes of ice-cold 50 mM Tris–HCl buffer (pH 7.6) and centrifuged at 20,000 × g for 20 min (0–4 °C). The cell pellet was resuspended in the Tris–HCl buffer and centrifuged again. Radioligand binding assays were performed in plates (MultiScreen/Millipore). […] The incubation was terminated by rapid filtration over glass fibre filters (Whatman GF/C) using a vacuum manifold (Millipore). The filters were then washed twice with the assay buffer and placed in scintillation vials with a liquid scintillation cocktail. Radioactivity was measured in a WALLAC 1409 DSA liquid scintillation counter. All assays were made in duplicate.

| SMILES | shortening of immobility in FST in comparison to control [1] | active dose in FST (antidepressant-like effect) [1] [mg/kg] | Ki [2] [nM] | Ki [3] [nM] | effect in the FST ([1]; doses of 4 and 8 mg/kg) |
| --- | --- | --- | --- | --- | --- |
| CC1(C)Cc2cccc(OCCN3CCC(NS(=O)(=O)c4ccc(F)cc4)CC3)c2O1 [Compound 6, 4-Fluoro-N-{1-[2-(2,2-dimethyl-2,3-dihydrobenzofuran-7-yloxy)ethyl]piperidin-4-yl} benzenesulfonamide] | about 25% | 8 | 538 ± 38 | 761 ± 86 | – |
| CC1(C)Cc2cccc(OCCN3CCC(NS(=O)(=O)c4cc(Cl)ccc4F)CC3)c2O1 [Compound 8, 5-Chloro-2-fluoro-N-{1-[2-(2,2-dimethyl-2,3-dihydrobenzofuran-7-yloxy)ethyl]piperidin-4-yl}benzenesulfonamide] | about 25% | 4 | 1420 ± 98 | 1260 ± 101 | – |
| CC1(C)Cc2cccc(OCCN3CCC(NS(=O)(=O)c4cncc5ccccc45)CC3)c2O1 [Compound 13, 4-Isoquinoline-N-{1-[2-(2,2-dimethyl-2,3-dihydrobenzofuran-7-yloxy)ethyl]piperidin-4-yl}sulfonamide] | about 25% | 1 | 1420 ± 105 | 429 ± 66 | lack of pharmacological effect |
